Patent US6313170A, “L-threonate ferrous, as well as pharmaceutical composition and use for improving and treating human anemia thereof” (priority 1997, dated 2001)

Tests used:
lymphoma cells = conditions: cited from earlier work
Blood-loss Anemia Model = assay: Blood-loss anemia model, rats; conditions: 8.64 mg Fe/kg (middle dosage / positive controls), n=10;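 also: male Wistar rats made anemic by repeated orbital bloodletting, kept on iron-low diet with deionized water while dosed, compared against untreated anemic model and normal-diet control groups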
Method: Ferrous gluconate, the positive control drug, yellow-green powder and 11% ferrous content, was purchased from Ganjian Pharmaceutical Company of Jianxi Province. Ferrous fumarate, 6.4% ferrous content, was purchased from the 18th Pharmaceutical Company of Shanghai. All drugs were diluted by distilled water.
7 groups were prepared as hemolytic anemia groups and one group was taken as normal control group supplemented with normal diet and water. The hemolytic anemia model was prepared by subjecting rats to inner canthus bloodletting of right eye through capillary glass tube. The first bloodletting content was 2.0 ml for each rat and in that time the range of hemochrome for rats was from 9.78 to 10.65 g %. Two days later, the second bloodletting (2 ml/rat) was carried out with the hemochrome values of 7.40-7.88 g %. The total bloodletting volume for each rat was 4 ml and was 32.9% in volume of the whole blood circulating the body.
While one hemolytic anemia group and one normal control group were taken as reference groups compared with other groups left. These two groups' rats were killed and the blood parameters were recorded. Other six groups now were randomly divided into three treatment groups of ferrous L-threonate with high, middle and low dosages respectively, two positive drugs control groups of ferrous gluconate and ferrous fumarate and one model group. At the end of 12 days and 18 days experimental periods, 5 and 10 rats of each group were killed correspondingly. During the course of experiment, the variations of hemochrome content were examined with 6 days interval.
While Element ferrous content 8.64 mg/kg as ferrous gluconate or ferrous fumarate was for positive drug control group. The groups for blood-loss anemia were provided iron-low diet and deionized water during the period of the administration of drugs, while the normal animal control group was provided normal diet and deionized water.

Hemolytic Anemia Model = assay: Hemolytic anemia model (acetylphenylhydrazine), rats; type: in vivo, male Wistar rats; conditions: 8.64 mg Fe/kg (middle dosage / positive control)
Method: 1. […] All drugs were diluted by distilled water.
2. […] Animal diet also was purchased from Beijing Medical University.
(1) Hemolytic Anemia Model: Hemolytic anemia model was prepared for rats by injecting reagent of acetylphenylhydrazine (C8 H10 N2 O, produced by Beijing Biochemical Company) subcutaneously. The drug acetyphenylhydrazine was mixed with physiological saline to get its injection solution of 4% by weight of acetyphenylhydrazine. The solution was injected subcutaneously into each rat with a dosage of 57 μg/g at the beginning of the experiments. The content of blood hemochrome for each rat was examined at 2 days and 4 days later, respectively. When the mean blood hemochrome decreased to about 6.11±0.25 g %, rats were randomly divided into 6 groups of 18 rats each. […] The forth groups was positive drug control groups. The fifth group and the sixth group were designed as model group and normal control group, respectively.

[1] = rat, in vivo, po, 2.5 mg/kg, 72 h
Method: Its chemical formula is Fe(C4 H7 O5)2.2H2 O, molecular weight:362.
Animals: Male Wistar rats were supplied by Experimental Animal Center, Tumor Institute of Heilongjian Province with body weight of 140 g-180 g. The iron-low diet contains iron 0.9 mg/kg.
50 rats were randomly divided into 5 groups of [19] 10 rats each. On this basis of administration of iron-low diet, each group of rats was administered respectively by gavage according to the dosage below:
High dosage group: Fe, 5 mg/kg, ferrous L-threonate, 32.32 mg/kg;
Middle dosage group: Fe, 2.5 mg/kg, ferrous L-threonate, 16.16 mg/kg;
Low dosage group: Fe, 1.0 mg/kg, ferrous L-threonate, 6.46 mg/kg;
Positive drug control group (ferrous sulfate): Fe, 2.5 mg/kg, ferrous sulfate, 12.43 mg/kg;
Negative drug control group (iron-low diet): Fe, 0.9 mg/kg (measured value).
After the end of 7 days feeding normal diet period, rats were supplemented with iron-low diet prepared according to AOAC formula for another 7 days. The 1-3 groups were treatment groups and supplemented with ferrous L-threonate 32.32 mg/kg (5 mgFe/kg, high dose group), 16.16 mg/kg (2.5 mg Fe/kg, middle dose group) and 6.46 mg/kg (1.0 mg Fe/kg, low dose group), respectively. The forth, positive drug control group, was provided with ferrous sulfate 12.43 mg/kg (2.5 mg Fe/kg). The fifth was model control group and was offered with iron-low diet (0.9 mg Fe/kg). Each groups were arranged to take drug one time by I.G (gavage) method per day and in the same time were supplemented with deionized water.
The test was sustained three days. Each rat's excrement was collected, dried at temperature 80-90° C., weighed and ground into 40-60 meshes. About 0.5 to 0.6 gram sample was taken and a mixture of nitric acid and perchloric acid at a ratio of 4:1 was added therein until completion of digestion. The constant volume is 10 ml. The iron content of excrement was determined by atomic absorption method and the iron absorptive rate for each rat can be calculated by the formula listed below. [formula]

IDA = conditions: in vivo; cited from earlier work

Row | Molecule | uptake of vitamin C by the lymphoma cells (lymphoma cells) | Blood hemochrome content (Blood-loss Anemia Model; 6 days after treatment) | Blood hemochrome content (Blood-loss Anemia Model; 12 days after treatment) | GPC (blood granulophilocyte) (Blood-loss Anemia Model; 12 days) [%] | RBC (Blood-loss Anemia Model; 12 days) [L⁻¹] | Blood hemochrome content (Blood-loss Anemia Model; 18 days after treatment) | GPC (blood granulophilocyte) (Blood-loss Anemia Model; 18 days) [%] | RBC (Blood-loss Anemia Model; 18 days) [L⁻¹] | Blood hemochrome content (Blood-loss Anemia Model; before treatment) | Iron content of whole blood (Hemolytic Anemia Model) [µg/mL] | Serum ferritin (SF) (Hemolytic Anemia Model) [ng/mL] | hemoglobin content (Hemolytic Anemia Model; after anemia (before treatment)) [g %] | hemoglobin content (Hemolytic Anemia Model; before anemia (baseline)) [g %] | hemoglobin content (Hemolytic Anemia Model; one week after treatment) [g %] | hemoglobin content (Hemolytic Anemia Model; two weeks after treatment) [g %] | Absorptivity [1] [%] | side effects (IDA)
1 | O=C(O)[C@H](O)[C@@H](O)CO [Calcium L-threonate] | can improve uptake of vitamin C by the lymphoma cells | – | – | – | – | – | – | – | – | – | – | – | – | – | – | – | –
2 | O=C([O-])/C=C/C(=O)[O-].[Fe+2] [Ferrous fumarate, reference compound] | – | 7.80 ± 0.24 | 10.12 ± 0.52 | 12.66 | 4.2e+12 | 11.84 ± 0.45 | 9.04 | 5.14e+12 | 7.43 ± 0.85 | – | – | – | – | – | – | – | –
3 | Ferrous gluconate [reference compound] | – | 7.95 ± 0.30 | 10.50 ± 0.61 | 12.66 | 4.488e+12 | 11.80 ± 0.63 | 9.04 | 5.14e+12 | 7.50 ± 0.76 | 286.04 ± 26.797 | 20.14 ± 2.83 | 6.57 | 15.34 | 10.62 | 12.65 | – | –
4 | ferrous sulfate [reference compound] | – | – | – | – | – | – | – | – | – | – | – | – | – | – | – | 42.00 ± 1.02 | limited because of its side effects
